Experimental data published in ChEMBL document CHEMBL1127350, “The squalestatins: novel inhibitors of squalene synthase. Enzyme inhibitory activities and in vivo evaluation of C1-modified analogues” (J Med Chem, 1994).
pIC50: −log10 of the molar value. Converted amounts (≈) assume the structure as drawn. “And” between values parts separate entries of the source, which are not always exact repeats. Equal entries are not always repeated.

How the values were obtained:
Cryptococcus neoformans = test: Compound was tested for an antifungal whole cell assay to obtain minimum inhibitory concentration against Cryptococcus neoformans 2867E; format: functional
Squalene synthase = target: T1, Squalene synthase (Rattus norvegicus, UniProt Q02769); test: Inhibition of juvenile male rat liver microsomal squalene synthase
T1 sequence (Q02769 whole entry): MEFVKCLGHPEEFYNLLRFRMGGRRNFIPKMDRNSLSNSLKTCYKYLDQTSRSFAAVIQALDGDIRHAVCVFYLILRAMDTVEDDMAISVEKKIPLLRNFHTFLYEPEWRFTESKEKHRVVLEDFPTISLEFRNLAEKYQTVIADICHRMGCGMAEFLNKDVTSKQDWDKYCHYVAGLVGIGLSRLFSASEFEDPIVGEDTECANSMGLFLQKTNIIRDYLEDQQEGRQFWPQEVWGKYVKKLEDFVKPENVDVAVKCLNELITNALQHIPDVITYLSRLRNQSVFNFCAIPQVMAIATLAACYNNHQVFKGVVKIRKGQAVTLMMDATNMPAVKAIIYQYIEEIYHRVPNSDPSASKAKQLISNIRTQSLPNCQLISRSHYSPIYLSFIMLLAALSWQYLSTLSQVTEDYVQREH

Aspergillus niger = test: Compound was tested for an antifungal whole cell assay to obtain minimum inhibitory concentration against Aspergillus niger 48238; format: functional
Candida albicans = test: Compound was tested for an antifungal whole cell assay to obtain minimum inhibitory concentration against Candida albicans C316; format: functional
[1] = Compound was tested on serum cholesterol levels in marmosets after 7 days at 1(mg/kg/day) intravenous administration in 6 animals; format: functional, Callitrichinae
[2] = Compound was tested on serum cholesterol levels in marmosets after 3 days at intravenous 0.33 (mg/kg) dose in 6 animals; format: functional, Callitrichinae
[3] = (§1) Compound was tested on serum cholesterol levels in marmosets after 7 days at intravenous 0.11 (mg/kg) dose in 6 animals; format: functional, Callitrichinae
[4] = Compound was tested on serum cholesterol levels in marmosets after 7 days at 1(mg/kg/day) intravenous administration in 8 animals; format: functional, Callitrichinae
Rattus norvegicus = test: Tested for inhibition of cholesterol biosynthesis by intravenous administration to rats; format: functional
[5] = Compound was tested on serum cholesterol levels in marmosets after 2 days at intravenous 1 (mg/kg) dose in 6 animals; format: functional, Callitrichinae
[6] = as §1; format: functional, Callitrichinae; remark: listed apart in the source
[7] = Cryptococcus neoformans, read-out: MIC
[8] = Aspergillus niger, read-out: MIC
[9] = Candida albicans, read-out: MIC

With `CC(CC[C@]12O[C@H](C(=O)O)[C@@](O)(C(=O)O)[C@](C(=O)O)(O1)[C@H](O)[C@H]2O)C[C@@H](C)Cc1ccccc1` (stereo not given in full) the MIC (Cryptococcus neoformans; [7]) was 125 µg/mL (≈ 259 µM), the pIC50 (Squalene synthase) was 6.38 and the MIC (Aspergillus niger; [8]) was 125 µg/mL (≈ 259 µM). The MIC (Candida albicans; [9]) was 125 µg/mL (≈ 259 µM).

Work on `CC[C@H](C)C[C@H](C)CCC(=O)O[C@@H]1[C@@H](O)[C@@]2(CCC(C)[C@H](OC(C)=O)[C@@H](C)Cc3ccccc3)O[C@H](C(=O)O)[C@@](O)(C(=O)O)[C@]1(C(=O)O)O2` (stereo in doubt; 2d) yielded an MIC (Cryptococcus neoformans) of 0.5 µg/mL (≈ 0.72 µM), a pIC50 (Squalene synthase) of 8.52 and an MIC (Aspergillus niger) of 8 µg/mL (≈ 11.5 µM). The MIC (Candida albicans) was 16 µg/mL (≈ 23 µM).

`CC(=O)O[C@@H](C(C)CC[C@]12O[C@H](C(=O)O)[C@@](O)(C(=O)O)[C@](C(=O)O)(O1)[C@H](O)[C@H]2O)[C@@H](C)Cc1ccccc1` (stereo not given in full) gave an MIC (Cryptococcus neoformans; [7]) of 125 µg/mL (≈ 231 µM), an MIC (Aspergillus niger; [8]) of 125 µg/mL (≈ 231 µM) and an MIC (Candida albicans; [9]) of 125 µg/mL (≈ 231 µM).

For `C=C(CC[C@]12O[C@H](C(=O)O)[C@@](O)(C(=O)O)[C@](C(=O)O)(O1)[C@H](OC(=O)/C=C/[C@@H](C)C[C@@H](C)CC)[C@H]2O)[C@H](O)[C@@H](C)Cc1ccccc1`, the Cholesterol reduction [1] was 59%, the MIC (Cryptococcus neoformans; [7]) was 1 µg/mL (≈ 1.54 µM) and the MIC (Aspergillus niger; [8]) was 16 µg/mL (≈ 24.7 µM). It also gave an MIC (Candida albicans; [9]) of 125 µg/mL (≈ 193 µM).

`C/C(=C\[C@@H](C)Cc1ccccc1)CC[C@]12O[C@H](C(=O)O)[C@@](O)(C(=O)O)[C@](C(=O)O)(O1)[C@H](O)[C@H]2O` showed a pIC50 (Squalene synthase) of 6.70.

For `CC[C@H](C)C[C@H](C)/C=C/C(=O)O[C@@H]1[C@@H](O)[C@@]2(CC/C(C)=C/[C@@H](C)Cc3ccccc3)O[C@H](C(=O)O)[C@@](O)(C(=O)O)[C@]1(C(=O)O)O2`, the MIC (Cryptococcus neoformans; [7]) was 4 µg/mL (≈ 6.32 µM), the pIC50 (Squalene synthase) was 7.49 and the MIC (Aspergillus niger; [8]) was 16 µg/mL (≈ 25.3 µM). For the same molecule, the MIC (Candida albicans; [9]) was 31 µg/mL (≈ 49 µM).

For `C=C(CC[C@]12O[C@H](C(=O)O)[C@@](O)(C(=O)O)[C@](C(=O)O)(O1)[C@H](O)[C@H]2O)[C@H](OC(C)=O)[C@@H](C)Cc1ccccc1`, the Cholesterol reduction [1] was 56%, the MIC (Cryptococcus neoformans; [7]) was > 125 µg/mL and the MIC (Aspergillus niger; [8]) was > 125 µg/mL. The MIC (Candida albicans; [9]) was > 125 µg/mL.

Molecule `CC[C@H](C)C[C@H](C)CCC(=O)O[C@@H]1[C@@H](O)[C@@]2(CCC(C)[C@H](OC(C)=O)[C@@H](C)Cc3ccccc3)O[C@H](C(=O)O)[C@@](O)(C(=O)O)[C@]1(C(=O)O)O2` (stereo in doubt; 2f) has an MIC (Cryptococcus neoformans) of 4 µg/mL (≈ 5.76 µM), a pIC50 (Squalene synthase) of 6.78 and an MIC (Aspergillus niger) of 125 µg/mL (≈ 180 µM). The MIC (Candida albicans) was 125 µg/mL (≈ 180 µM).

`C=C(CC[C@]12O[C@H](C(=O)O)[C@@](O)(C(=O)O)[C@](C(=O)O)(O1)[C@H](O)[C@H]2O)[C@H](O)[C@@H](C)Cc1ccccc1` gave an MIC (Cryptococcus neoformans; [7]) of 62 µg/mL (≈ 125 µM), a pIC50 (Squalene synthase) of 6.60 and an MIC (Aspergillus niger; [8]) of 62 µg/mL (≈ 125 µM). For the same molecule, the MIC (Candida albicans; [9]) was 62 µg/mL (≈ 125 µM).

`CC[C@H](C)C[C@H](C)CCC(=O)O[C@@H]1[C@@H](O)[C@@]2(C/C=C(\C)[C@H](OC(C)=O)[C@@H](C)Cc3ccccc3)O[C@H](C(=O)O)[C@@](O)(C(=O)O)[C@]1(C(=O)O)O2` showed an MIC (Cryptococcus neoformans; [7]) of 8 µg/mL (≈ 11.5 µM), a pIC50 (Squalene synthase) of 7.66 and an MIC (Aspergillus niger; [8]) of 31 µg/mL (≈ 44.7 µM). For the same molecule, the MIC (Candida albicans; [9]) was 125 µg/mL (≈ 180 µM).

In the case of `C=C(CC[C@]12O[C@H](C(=O)O)[C@@](O)(C(=O)O)[C@](C(=O)O)(O1)[C@H](OC(=O)/C=C/[C@@H](C)C[C@@H](C)CC)[C@H]2O)[C@H](OC(C)=O)[C@@H](C)Cc1ccccc1`, the MIC (Cryptococcus neoformans; [7]) was 0.5 µg/mL (≈ 0.724 µM), the Cholesterol reduction [2] was 53% and 63% and 62% and the Cholesterol reduction [3] was 39%. For the same molecule, the Cholesterol reduction [4] was 86%, the ED50 (Rattus norvegicus) was 0.1 mg/kg and the Cholesterol reduction [5] was 47% and 53% and 60%. The Cholesterol reduction [6] was 37% and 41%, the MIC (Aspergillus niger; [8]) was 16 µg/mL (≈ 23.2 µM) and the MIC (Candida albicans; [9]) was 8 µg/mL (≈ 11.6 µM).

`CC[C@H](C)C[C@H](C)CCC(=O)O[C@@H]1[C@@H](O)[C@@]2(CCC(C)[C@H](O)[C@@H](C)Cc3ccccc3)O[C@H](C(=O)O)[C@@](O)(C(=O)O)[C@]1(C(=O)O)O2` (stereo not given in full) showed an MIC (Cryptococcus neoformans; [7]) of 8 µg/mL (≈ 12.3 µM), an MIC (Aspergillus niger; [8]) of 31 µg/mL (≈ 47.5 µM) and an MIC (Candida albicans; [9]) of 125 µg/mL (≈ 192 µM).

In the case of `CC[C@H](C)C[C@H](C)/C=C/C(=O)O[C@@H]1[C@@H](O)[C@@]2(C/C=C(\C)CC(C)Cc3ccccc3)O[C@H](C(=O)O)[C@@](O)(C(=O)O)[C@]1(C(=O)O)O2` (single isomer, unassigned), the MIC (Cryptococcus neoformans; [7]) was 2 µg/mL (≈ 3.16 µM), the pIC50 (Squalene synthase) was 7.19 and the MIC (Aspergillus niger; [8]) was 31 µg/mL (≈ 49 µM). The MIC (Candida albicans; [9]) was 31 µg/mL (≈ 49 µM).

Molecule `CC[C@H](C)C[C@H](C)CCC(=O)O[C@@H]1[C@@H](O)[C@@]2(CCC(C)C[C@@H](C)Cc3ccccc3)O[C@H](C(=O)O)[C@@](O)(C(=O)O)[C@]1(C(=O)O)O2` (stereo not given in full) has an MIC (Cryptococcus neoformans; [7]) of 1 µg/mL (≈ 1.57 µM), an MIC (Aspergillus niger; [8]) of 16 µg/mL (≈ 25.1 µM) and an MIC (Candida albicans; [9]) of 31 µg/mL (≈ 48.7 µM).

`C=C(CC[C@]12O[C@H](C(=O)O)[C@@](O)(C(=O)O)[C@](C(=O)O)(O1)[C@H](OC(=O)CC[C@@H](C)C[C@@H](C)CC)[C@H]2O)[C@H](OC(C)=O)[C@@H](C)Cc1ccccc1` showed a Cholesterol reduction [1] of 72%, an MIC (Cryptococcus neoformans; [7]) of 0.1 µg/mL (≈ 0.144 µM) and a pIC50 (Squalene synthase) of 7.89. For the same molecule, the MIC (Aspergillus niger; [8]) was 1 µg/mL (≈ 1.44 µM) and the MIC (Candida albicans; [9]) was 8 µg/mL (≈ 11.5 µM).
